Laboratory results taken from article PMC8210147, “Characterization of the MurT/GatD complex in Mycobacterium tuberculosis towards validating a novel anti-tubercular drug target” (JAC-Antimicrobial Resistance, 2021).

Molecular target: Rv3712 (mycobacterial MurT) (Mycobacterium tuberculosis, UniProt I6Y4C7)
Sequence (I6Y4C7 entry or part of it): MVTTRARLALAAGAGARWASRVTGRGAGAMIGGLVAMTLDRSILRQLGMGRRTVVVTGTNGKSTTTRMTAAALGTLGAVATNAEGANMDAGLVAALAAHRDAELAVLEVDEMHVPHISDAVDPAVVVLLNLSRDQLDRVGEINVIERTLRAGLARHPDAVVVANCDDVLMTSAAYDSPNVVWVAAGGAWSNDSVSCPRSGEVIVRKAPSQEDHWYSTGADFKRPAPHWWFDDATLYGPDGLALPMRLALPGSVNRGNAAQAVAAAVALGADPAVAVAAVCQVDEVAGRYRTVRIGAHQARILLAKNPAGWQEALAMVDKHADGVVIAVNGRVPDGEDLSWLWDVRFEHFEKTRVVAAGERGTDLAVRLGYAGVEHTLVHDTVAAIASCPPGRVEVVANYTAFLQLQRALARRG

`Nc1ncnc2c1ncn2[C@@H]1O[C@H](COP(=O)(O)OP(=O)(O)OP(=O)(O)O)[C@@H](O)[C@H]1O` [ATP] was tested, and the “inorganic phosphate release (PiColorLock Gold), 30 min” value was “Rv3712 was found to be an ATPase”.
